Key:
[1] = tested on: hippocampal CA3 pyramidal neurons; assay: Response of hippocampal CA3 pyramidal neurons to WAY 100635 after 3-day treatments (5-HT1A tonus); type: in vivo, rat; conditions: for 5-HT1A-mediated inhibitory tonus in the hippocampus: Example 7, 3 days, prucalopride 2.5, citalopram 10, RS 67333 1.5 mg/kg/day
Experimental: FIGS. 8A to 8C. […] Single-cell extracellular recordings were performed in the CA3 region of chloral-hydrate anaesthetized rats by using multiple-barrel glass microelectrodes, combined with microiontophoretic pumps (with the central barrel used for recordings). Pyramidal neurons were identified according to the classical criteria (see Example 5, the experimental procedures). The 5-HT4 agonists were administered through the use of osmotic minipumps, inserted subcutaneously in the region of the back. Recordings were performed with the minipumps still in place. *p<0.05, **p<0.01, ***p<0.001 vs control, Dunnett's test. […] FIG. 8C is a typical example showing the response of a single pyramidal neuron to cumulative doses of WAY 100635, in a rat co-administered with RS 67333 (same treatment as above for FIG. 8A) and the 5-HT depleter para-chlorophenylalanine (pCPA; 150 mg/kg, i.p. once daily 72, 48 and 24 h before the recordings).
Drugs and Chemicals. The following compounds were used: GR 125487 sulphamate, prucalopride monohydrochloride, citalopram hydrobromide (gifts from Glaxo, Janssen and Lundbeck laboratories, respectively), RS 67333 hydrochloride (Tocris Cookson Inc., Ellisville, Mo., USA), WAY 100635 hydrochloride (Research Biochemicals, Natick, Mass., USA), pCPA methyl ester hydrochloride, BrdU (Sigma-Aldrich Canada, Oakville, Ontario, Canada). All compounds were diluted in distilled water. All drug dosages refer to the free base. For chronic treatments, prucalopride (2.5 mg/kg/day), RS 67333 (1.5 mg/kg/day) or the vehicle were delivered through osmotic minipumps (Alza, Palo Alto, Calif., USA), inserted subcutaneously in the region of the back under short-duration (≦5 min) halothane anesthesia. The 5-HT depleter PCPA was administered once daily at the dose of 150 mg/kg, i.p., 72, 48 and 24 h before the recordings. BrdU treatments consisted of two administrations per day (50 mg/kg, i.p. each, 8 h interval), starting from the day of minipump insertion until day 2 post-surgery.
(§1) Microiontophoresis and extracellular recordings from hippocampal CA3 pyramidal neurons. Recording and microiontophoresis were performed with five-barreled glass micropipettes broken back to 8-12 μm under microscope control. The central barrel was filled with the same solution as in the DRN and was used for extracellular unitary recordings. Pyramidal neurons were identified by their large amplitude (0.5-1.2 mV) and long-duration (0.8-1.2 ms) simple spikes alternating with complex spike discharges (Kandel and Spencer, 1961). The side barrels contained the following solutions: quisqualate (1.5 mM in 200 mM NaCl, pH 8), WAY 100635 (15 mM in 200 mM NaCl, pH 4), and 2 M NaCl used for automatic current balancing. Rats were mounted in the stereotaxic apparatus and the micropipettes were lowered at 4.2 mm lateral and 4.2 anterior to lambda into the CA3 sub-region of the dorsal hippocampus.
The firing activity of dorsal hippocampus pyramidal neurons was then recorded in the CA3 subfield, before and after systemic administration of the selective 5-HTLA antagonist WAY 100635.

[2] = Horizontal locomotion in activity chambers; conditions: i.p. 30 min before testing; prucalopride 2.5 mg/kg, RS 67333 1.5 mg/kg
Experimental: All data are expressed as mean±S.E.M. of eight animals per group, and are from an observation of 4 min duration. Rats experienced a pre-test session (15 min) 24 h before the test session. The 5-HT4 agonists were administered 30 min before the test session. […] Data are expressed as mean±S.E.M. of eight animals per group, and are from an observation of 10 min duration. The 5-HT4 agonists were administered 30 min before testing. *p<0.05, **p<0.01 vs the vehicle, Dunnett's test;
Thirty min after drug administration, rats were placed in activity cages in whom photoelectric cells were inserted allowing recordings of locomotor activity, i.e. quantification of the total number of activity counts (photocell beam breaks) during 10 min. session.

[3] = tested on: hippocampal CA3 pyramidal neurons; assay: Acute i.v. prucalopride on firing of hippocampal CA3 pyramidal neurons, with microiontophoresis; type: in vivo, rat; conditions: prucalopride 1000 μg/kg i.v.
Experimental: FIGS. 9A to 9D. FIGS. 9A and 9C show a typical example (integrated firing rate histogram) of the response of a single hippocampal pyramidal neuron of the CA3 sub-field to an acute, intravenous administration of the selective 5-HT4 agonist prucalopride (1000 μg/kg), and its reversal by local, microiontophoretic application of the selective 5-HT1A antagonist WAY 100635 (A), or systemic injection of the selective 5-HT4 antagonist GR 125487 (1000 μg/kg, i.v.) (C). Single-cell extracellular recordings were performed in the CA3 region of chloral-hydrate anaesthetized rats by using multiple-barrel glass microelectrodes, combined with microiontophoretic pumps (with the central barrel used for recordings). Pyramidal neurons were identified according to the classical criteria (see Example 5, experimental procedures). FIGS. 9B and 9D show a summary of the effects as for FIGS. 9A and 9C, respectively. Bar histograms represent the mean (S.E.M.) percentage effect, calculated for each neuron with respect to its basal firing rate (i.e. 100% value), and the number in each column represents the number of neurons tested. *p<0.05 vs basal value, one-way ANOVA.
as §1
Involvement of endogenous 5-HT and hippocampal 5-HT1A receptors in the effect of 5-HT4 agonists. […] This interpretation is consistent with our own previous findings, showing that both acute and chronic (3-day) administration of the same compounds augment DRN 5-HT neuronal firing activity (Lucas and Debonnel, 2002; Lucas et al., 2005). It is also in keeping with observations from a single in vivo microdialysis study, where acute systemic injection of preferential 5-HT4 agonists increased hippocampal 5-HT efflux (Ge and Barnes, 1996). To further address this possibility, two additional series of experiments were conducted. First, the role of endogenous 5-HT was assessed by using the same protocol as above, in rats co-treated with RS 67333 (or its vehicle) and the 5-HT depleter para-chlorophenylalanine (pCPA). […] The ejection currents of quisqualate needed to activate CA3 pyramidal neurons were, in this case, similar to those used in controls (0 to −2 nA, FIG. 8C). We then tested the ability of a local application of WAY 100635, directly into the CA3 subfield through the use of microiontophoresis, to modify the effect of a 5-HT4 agonist. We chose not to use the previous protocol (i.e. chronic treatments), because, as shown above, the required quisqualate currents differ between the experimental groups. Even though all currents were balanced, it was not possible to exclude the possibility that the amount of quisqualate present in the vicinity of the electrode may have an influence on the quantity of WAY 100635 actually ejected, and/or on its ability to act on pyramidal neurons. For this reason, prucalopride was used acutely in naïve rats, at a dose known to induce a significant augmentation of DRN 5-HT neuronal activity (1000 μg/kg, i.v.) (Lucas and Debonnel, 2002). […]

[4] = cumulative i.v. WAY 100635 500 μg/kg, 3-day prucalopride 2.5 mg/kg/day or RS 67333 1.5 mg/kg/day

| Structure (SMILES) | CA3 pyramidal neuron activity after WAY 100635 ([1]; 3-day RS 67333, as restated in the Discussion) | quisqualate ejection currents required to obtain basal firing ([1]; 3-day treated groups, controls 0 to −2 nA) [nA] | 5-HT1A-mediated inhibitory tonus in the hippocampus [1] | firing activity of CA3 pyramidal neurons after WAY 100635 ([1]; cumulative i.v. WAY 100635 200 μg/kg, 3-day RS 67333 1.5 mg/kg/day) | firing activity of CA3 pyramidal neurons after WAY 100635 ([1]; cumulative i.v. WAY 100635 300 μg/kg, 3-day RS 67333 1.5 mg/kg/day) | firing activity of CA3 pyramidal neurons after WAY 100635 [1, 4] | effect on rat locomotion (activity counts, 10 min) [2] [%] | inhibition at 1 mg/kg ([3]; Rattus norvegicus, Pyramidal neuron, iv, Discussion) [%] | discharge of inhibited CA3 pyramidal neurons ([3]; naïve rats, the 17 inhibited neurons) | share of recorded pyramidal neurons inhibited ([3]; 17 of 38 neurons) |
| --- | --- | --- | --- | --- | --- | --- | --- | --- | --- | --- |
| CCCCN1CCC(CCC(=O)c2cc(Cl)c(N)cc2OC)CC1 [RS 67333, 1-(4-amino-5-chloro-2-methoxyphenyl)-3-(1-n-burtl-4-piperidinyl)-1-propanone] | up to 440 % of pre-drug values | −4 to −6 | strong tonic inhibition | 276 (±52) % of basal values | 378 (±43) % of basal values | 445 (±60) % of baseline |  |  |  |  |
| COCCCN1CCC(NC(=O)c2cc(Cl)c(N)c3c2OCC3)CC1 [prucalopride] |  |  | modest inhibitory tonus |  |  | 191 (±31) % of baseline | 78 | ~50 | 46 (±5.6) % of pre-drug values | 45 % of total |
